# Data taken from US20250221966A1, “RXFP1 AGONISTS” (BRISTOL-MYERS SQUIBB COMPANY, priority 2021, published 2025).
# Target: T1, human RXFP1 (Homo sapiens, UniProt Q9HBX9)
# T1 construct: expressed in transfected cells
# T1 sequence (Q9HBX9 1-757): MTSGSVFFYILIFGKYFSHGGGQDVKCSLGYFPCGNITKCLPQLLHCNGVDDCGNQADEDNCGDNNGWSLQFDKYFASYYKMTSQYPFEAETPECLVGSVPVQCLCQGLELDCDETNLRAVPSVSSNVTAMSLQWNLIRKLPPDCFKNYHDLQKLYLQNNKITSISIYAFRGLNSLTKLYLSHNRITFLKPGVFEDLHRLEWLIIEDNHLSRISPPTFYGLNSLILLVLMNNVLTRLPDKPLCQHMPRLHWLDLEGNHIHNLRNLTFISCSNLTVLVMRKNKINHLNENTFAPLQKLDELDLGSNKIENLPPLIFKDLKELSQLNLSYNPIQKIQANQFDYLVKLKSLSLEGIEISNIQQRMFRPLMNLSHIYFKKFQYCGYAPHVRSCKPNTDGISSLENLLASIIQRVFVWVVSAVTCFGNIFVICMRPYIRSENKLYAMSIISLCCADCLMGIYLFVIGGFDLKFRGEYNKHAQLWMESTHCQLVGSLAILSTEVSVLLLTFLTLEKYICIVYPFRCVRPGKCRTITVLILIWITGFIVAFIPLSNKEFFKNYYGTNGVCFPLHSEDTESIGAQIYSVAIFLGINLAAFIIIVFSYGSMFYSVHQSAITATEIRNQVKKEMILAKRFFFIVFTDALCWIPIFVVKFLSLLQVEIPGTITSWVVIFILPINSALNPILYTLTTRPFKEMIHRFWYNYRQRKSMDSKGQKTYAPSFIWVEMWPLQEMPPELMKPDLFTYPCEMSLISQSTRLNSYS
# Test: RXFP1 cAMP assay (hRXFP1 HEK293 cAMP assay, HTRF)
# Type: cell-based
# Conditions: HEK293 cells stably expressing human RXFP1, 30 min at room temperature, read-out: cAMP hRXFP1 HEK293 Assay EC50
# Summary of the method: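 Potency and activity come from a four-parameter logistic fit of cAMP against compound concentration, tested from 0.010 nM up to 50 μM. The assay uses HEK293 cells stably expressing human RXFP1, incubated 30 min at ambient temperature with phosphodiesterase inhibitor IBMX present.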
row,SMILES,EC50
1,"COc1ccc(C2CCN(C(=O)C(C)(C)O)C2)cc1C(=O)N[C@H]1[C@@H](C(=O)Nc2ccc(F)c(C(F)(F)F)c2)[C@H]2CC[C@@H]1/C2=C\C1CC1 (single isomer, unassigned) [Example 449]",1.6 nM
2,"O=C(N[C@H]1[C@@H](C(=O)Nc2ccc(F)c(C(F)(F)F)c2)[C@H]2CC[C@@H]1/C2=C\C1CC1)c1cc(C2=NOC3COCC23)ccc1F (single isomer, unassigned) [compound 514]",17.2 nM
3,COc1ccc(-c2cc(C(=O)O)ccc2F)cc1C(=O)N[C@@H]1C2CCC(/C2=C/C2CC2)[C@@H]1C(=O)NCCc1cccc(C(F)(F)F)c1 (stereo partly shown) [compound 302],889 nM
4,COC(=O)c1c[nH]c2cc(-c3ccc(OC)c(C(=O)N[C@@H]4C5CCC(/C5=C/C(F)(F)F)[C@@H]4C(=O)Nc4ccc(F)c(C(F)(F)F)c4)c3)ccc12 (stereo partly shown) [compound 296],205 nM
5,"O=C(N[C@H]1[C@@H](C(=O)Nc2ccc(F)c(C(F)(F)F)c2)[C@H]2CC[C@@H]1/C2=C\C1CC1)c1cc(C2=NOC3CC(CO)CC23)ccc1F (single isomer, unassigned) [compound 473]",4.9 nM
6,"COc1ccc(C2=NOC3CC(C(N)=O)CC23)cc1C(=O)N[C@H]1[C@@H](C(=O)Nc2ccc(F)c(C(F)(F)F)c2)[C@H]2CC[C@@H]1/C2=C\C1CC1 (single isomer, unassigned) [compound 587]",80.8 nM
7,COc1ccc(C2=NC[C@H]3CCCN23)cc1C(=O)N[C@H]1[C@@H](C(=O)Nc2ccc(F)c(C(F)(F)F)c2)[C@H]2CC[C@@H]1/C2=C\C1CC1 [Example 699],1030 nM
8,"COCCOc1ccc(C2=NOC3COCC23)cc1C(=O)N[C@H]1[C@@H](C(=O)Nc2ccc(F)c(C(F)(F)F)c2)[C@H]2CC[C@@H]1/C2=C\C1CC1 (single isomer, unassigned) [Example 452]",1.8 nM
9,COc1ccc(Br)cc1C(=O)N[C@@H]1C2CCC(/C2=C/C(F)(F)F)[C@@H]1C(=O)Nc1ccc(F)c(C(F)(F)F)c1 (stereo partly shown) [compound 292],1860 nM
10,COc1ccc(-c2cc(C(O)C(=O)O)ccc2F)cc1C(=O)NC1C2CCC(/C2=C/C2CCCC2)C1C(=O)Nc1ccc(F)c(C(F)(F)F)c1 (stereo not shown) [compound 355],3 nM
11,COc1ccc(Br)cc1C(=O)NC1C2CCC(C2=C(C)C)C1C(=O)Nc1ccc(F)c(C(F)(F)F)c1 (stereo not shown) [Example 76],400 nM
12,COc1ccc(-c2cc(CC(=O)O)ccc2F)cc1C(=O)N[C@@H]1C2CCC(/C2=C/c2ccccc2)[C@@H]1C(=O)Nc1ccc(F)c(C(F)(F)F)c1 (stereo partly shown) [compound 187],19 nM
13,"COc1ccc([C@@H]2CO[C@H]3[C@@H]2OC[C@@H]3O)cc1C(=O)N[C@H]1[C@@H](C(=O)Nc2ccc(F)c(C(F)(F)F)c2)[C@H]2CC[C@@H]1/C2=C\C1CC1 [Example 536, (1R,2S,3R,4R,Z)-7-(cyclopropylmethylene)-N-(4-fluoro-3-(trifluoromethyl)phenyl)-3-(5-((3R,3aR,6S,6aR)-6-hydroxyhexahydrofuro[3,2-b]furan-3-yl)-2-methoxybenzamido)bicyclo[2.2.1]heptane-2-carboxamide]",24.7 nM
14,COc1cc(F)c(F)cc1C(=O)N[C@@H]1C2CCC(C2=C(C)C)[C@@H]1C(=O)Nc1ccnc(C(F)(F)F)c1 (stereo partly shown) [compound 75],2600 nM
15,COc1ccc(-c2ccc(C(=O)O)cc2F)cc1C(=O)N[C@@H]1C2CCC(/C2=C/c2ccccc2)[C@@H]1C(=O)Nc1ccc(F)c(C(F)(F)F)c1 (stereo partly shown) [compound 169],44 nM
16,"COCCOC1(C2CC(c3ccc(OC)c(C(=O)N[C@H]4[C@@H](C(=O)Nc5ccc(F)c(C(F)(F)F)c5)[C@H]5CC[C@@H]4/C5=C\C4CC4)c3)=NO2)CC1 (single isomer, unassigned) [compound 558]",44.3 nM
17,COc1ccc(C2=NOC3COCC23)cc1C(=O)N[C@H]1[C@@H](C(=O)N[C@H](C)C(C)(C)C)[C@H]2CC[C@@H]1/C2=C\C1CC1 (stereo partly shown) [compound 485],7.8 nM
18,COc1ccc(C2=NOC(CC(=O)O)C2)cc1C(=O)N[C@@H]1C2CCC(/C2=C/C(F)(F)F)[C@@H]1C(=O)Nc1ccc(F)c(C(F)(F)F)c1 (stereo partly shown) [compound 396],320 nM
19,COc1ccc(-c2cc(C(F)F)ccc2F)cc1C(=O)N[C@@H]1C2CCC(/C2=C/C2CC2)[C@@H]1C(=O)Nc1ccc(F)c(C(F)(F)F)c1 (stereo partly shown) [compound 280],12 nM
20,"COc1ccc(C2=NOC(C(C)(O)C(F)(F)F)C2)cc1C(=O)N[C@H]1[C@@H](C(=O)Nc2ccc(F)c(C(F)(F)F)c2)[C@H]2CC[C@@H]1/C2=C\C1CC1 (single isomer, unassigned) [compound 517]",18 nM
21,COc1ccc(C2=NOC3COCC23)cc1C(=O)N[C@H]1[C@@H](C(=O)NCC2(C)CC2)[C@H]2CC[C@@H]1/C2=C\C1CC1 (stereo partly shown) [compound 522],21.1 nM
22,COc1ccc(C2=NOC(CCO)C2)cc1C(=O)N[C@@H]1C2CCC(/C2=C/C2CC2)[C@@H]1C(=O)Nc1ccc(F)c(C(F)(F)F)c1 (stereo partly shown) [compound 398],37 nM

# The next lines start with the values.
row,EC50,SMILES
1,104 nM,"COc1ccc(C2=NOC3CC(C(C)(C)O)CC23)cc1C(=O)N[C@H]1[C@@H](C(=O)Nc2ccc(F)c(C(F)(F)F)c2)[C@H]2CC[C@@H]1/C2=C\C1CC1 (single isomer, unassigned) [compound 599]"
2,448 nM,"CN(C)c1c(Cl)cc(C2=NOC3COCC23)cc1C(=O)N[C@H]1[C@@H](C(=O)Nc2ccc(F)c(C(F)(F)F)c2)[C@H]2CC[C@@H]1/C2=C\C(F)(F)F (single isomer, unassigned) [compound 670]"
3,6.8 nM,COc1ccc(-c2cc(C3=NOC(CO)C3)ccc2F)cc1C(=O)N[C@H]1[C@@H](C(=O)Nc2ccc(F)c(C(F)(F)F)c2)[C@H]2CC[C@@H]1/C2=C\C1CC1 (stereo partly shown) [compound 906]
4,4.9 nM,COc1ccc(-c2cc(C3=NOC4CC(CO)CC34)ccc2F)cc1C(=O)N[C@H]1[C@@H](C(=O)Nc2ccc(F)c(C(F)(F)F)c2)[C@H]2CC[C@@H]1/C2=C\C1CCCC1 (stereo partly shown) [compound 950]
5,2.7 nM,COc1c(F)cc(C2=NOC3CC(C(C)O)CC23)cc1C(=O)N[C@H]1[C@@H](C(=O)Nc2ccc(F)c(C(F)(F)F)c2)[C@H]2CC[C@@H]1/C2=C\C1CC1 (stereo partly shown) [compound 850]
6,2.7 nM,COc1ccc(C2=NOC3CC(CO)CC23)cc1C(=O)N[C@H]1[C@@H](C(=O)N[C@H](C)C2(C)CC2)[C@H]2CC[C@@H]1/C2=C\C1CC1 (stereo partly shown) [compound 766]
7,3.7 nM,COc1ccc(C2=NO[C@H]3C[C@H](CO)CN23)cc1C(=O)N[C@H]1[C@@H](C(=O)Nc2ccc(F)c(C(F)(F)F)c2)[C@H]2CC[C@@H]1/C2=C\C(C)C [compound 833]
8,1600 nM,COc1ccc(N2CC(CN)CC2=O)cc1C(=O)N[C@H]1[C@@H](C(=O)Nc2ccc(F)c(C(F)(F)F)c2)[C@H]2CC[C@@H]1/C2=C\C1CC1 (stereo partly shown) [compound 712]
9,2.3 nM,CC12CC(NC(=O)[C@@H]3[C@H](NC(=O)c4cc(C5=NOC6CC(CO)CC56)cc(F)c4OCC4CC4)[C@@H]4CC[C@H]3/C4=C/C3CC3)(C1)C2 (stereo partly shown) [compound 764]
10,1.3 nM,COc1ccc(-c2cc(C(COC(=O)NC3CCC3)C(F)(F)F)ccc2F)cc1C(=O)N[C@H]1[C@@H](C(=O)Nc2ccc(F)c(C(F)(F)F)c2)[C@H]2CC[C@@H]1/C2=C\C1CCCC1 (stereo partly shown) [compound 894]
11,141 nM,"COc1ccc(C2=NOC3(CO)CCCC23)cc1C(=O)N[C@H]1[C@@H](C(=O)Nc2ccc(F)c(C(F)(F)F)c2)[C@H]2CC[C@@H]1/C2=C\C1CC1 (single isomer, unassigned) [compound 616]"
12,0.2 nM,COc1ccc(-c2cccc3c2ccn3CC(C)(C)O)cc1C(=O)N[C@@H]1C2CCC(/C2=C/C2CCCC2)[C@@H]1C(=O)Nc1ccc(F)c(C(F)(F)F)c1 (stereo partly shown) [compound 895]
13,3.4 nM,COc1ccc(C2=NOC3CC(O)(C(F)(F)F)CC23)cc1C(=O)N[C@H]1[C@@H](C(=O)NCC(C)(C)C)[C@H]2CC[C@@H]1/C2=C\C1CC1 (stereo partly shown) [compound 862]
14,626 nM,"COc1ccc(C2=NOC3COCC23)cc1C(=O)N[C@H]1[C@@H](C(=O)NC(C)C2CCC2)[C@H]2CC[C@@H]1/C2=C\C1CC1 (single isomer, unassigned) [compound 683]"
15,4.1 nM,COc1ccc(C2=NOC3CC(CO)CC23)cc1C(=O)N[C@H]1[C@@H](C(=O)Nc2ccc(F)c(C(F)(F)F)c2)[C@H]2CC[C@@H]1/C2=C\c1csc(C)n1 (stereo partly shown) [compound 805]
16,4.4 nM,COc1ccc(C2=NO[C@H]3C[C@H](CO)CN23)cc1C(=O)N[C@H]1[C@@H](C(=O)Nc2ccc(F)c(C(F)(F)F)c2)[C@H]2CC[C@@H]1/C2=C\CC(C)C [compound 838]
17,1.4 nM,COc1ccc(-c2cc(C(OC(=O)NC(C)(C)C)C(=O)O)ccc2F)cc1C(=O)N[C@H]1[C@@H](C(=O)Nc2ccc(F)c(C(F)(F)F)c2)[C@H]2CC[C@@H]1/C2=C\CCC(F)(F)F (stereo partly shown) [compound 934]
18,0.9 nM,COc1ccc(-c2cc(C(COC(=O)NC3CCC3)C(F)(F)F)ccc2F)cc1C(=O)N[C@H]1[C@@H](C(=O)Nc2ccc(F)c(C(F)(F)F)c2)[C@H]2CC[C@@H]1/C2=C\C1CC1 (stereo partly shown) [compound 879]
